We go through one compound from publication PMC6934184, “Selective DNA-PKcs inhibition extends the therapeutic index of localized radiotherapy and chemotherapy” (The Journal of Clinical Investigation, 2019).

One may read the inhibition as the percentage by which the read-out fell short of the control. The low end stands for little suppression, the high end for strong suppression.

The structures appear in SMILES notation.

In the experiment the target is T1, BMX (Homo sapiens, UniProt P51813).
T1 construct: purchased Thermo Fisher Scientific (Life Technologies) SelectScreen
Description: SelectScreen Z'LYTE. Type of experiment: biochemical. The method, boiled down:
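Percent values come from Thermo SelectScreen profiling of NU5455, combining activity and binding assays. CSF1R was run in Z'LYTE format at Km app ATP, and CAMK1 in Adapta format with ATP listed at 10.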

T1 sequence (P51813 whole entry): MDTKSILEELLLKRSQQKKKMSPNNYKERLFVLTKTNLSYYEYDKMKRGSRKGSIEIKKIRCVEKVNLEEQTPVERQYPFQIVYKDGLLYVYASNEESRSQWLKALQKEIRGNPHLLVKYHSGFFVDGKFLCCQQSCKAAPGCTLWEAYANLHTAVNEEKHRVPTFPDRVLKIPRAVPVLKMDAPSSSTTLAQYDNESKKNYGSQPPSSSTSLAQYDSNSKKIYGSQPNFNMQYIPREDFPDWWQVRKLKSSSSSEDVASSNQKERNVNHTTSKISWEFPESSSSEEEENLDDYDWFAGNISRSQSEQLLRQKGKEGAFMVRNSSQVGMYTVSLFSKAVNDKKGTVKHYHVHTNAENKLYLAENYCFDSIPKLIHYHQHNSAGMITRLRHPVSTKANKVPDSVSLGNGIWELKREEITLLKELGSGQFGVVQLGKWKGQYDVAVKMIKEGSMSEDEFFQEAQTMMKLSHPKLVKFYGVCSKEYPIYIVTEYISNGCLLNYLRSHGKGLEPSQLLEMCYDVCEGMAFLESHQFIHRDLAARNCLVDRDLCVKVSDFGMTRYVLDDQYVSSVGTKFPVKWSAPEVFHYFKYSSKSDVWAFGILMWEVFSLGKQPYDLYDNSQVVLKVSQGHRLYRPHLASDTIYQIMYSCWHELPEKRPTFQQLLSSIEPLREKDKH

As to `CN(C(=O)CN1CCOCC1)c1ccc2sc3c(-c4cccc5c(=O)cc(N6CC7CCC(C6)O7)oc45)cccc3c2c1` [NU5455], the inhibition at 1 µM amounted to 4.4%.
